Data: ChEMBL document CHEMBL4507291 (2021)

Columns and labels:
[1] = molecular target: Cyclin-dependent kinase 4 (Homo sapiens) (UniProt P11802)
[2] = molecular target: Receptor tyrosine-protein kinase erbB-4 (Homo sapiens) (UniProt Q15303)
[3] = molecular target: Mitogen-activated protein kinase 8 (Homo sapiens) (UniProt P45983)
[4] = molecular target: T1, Serine/threonine-protein kinase 3 (Homo sapiens) (UniProt Q13188)
T1 sequence (whole entry): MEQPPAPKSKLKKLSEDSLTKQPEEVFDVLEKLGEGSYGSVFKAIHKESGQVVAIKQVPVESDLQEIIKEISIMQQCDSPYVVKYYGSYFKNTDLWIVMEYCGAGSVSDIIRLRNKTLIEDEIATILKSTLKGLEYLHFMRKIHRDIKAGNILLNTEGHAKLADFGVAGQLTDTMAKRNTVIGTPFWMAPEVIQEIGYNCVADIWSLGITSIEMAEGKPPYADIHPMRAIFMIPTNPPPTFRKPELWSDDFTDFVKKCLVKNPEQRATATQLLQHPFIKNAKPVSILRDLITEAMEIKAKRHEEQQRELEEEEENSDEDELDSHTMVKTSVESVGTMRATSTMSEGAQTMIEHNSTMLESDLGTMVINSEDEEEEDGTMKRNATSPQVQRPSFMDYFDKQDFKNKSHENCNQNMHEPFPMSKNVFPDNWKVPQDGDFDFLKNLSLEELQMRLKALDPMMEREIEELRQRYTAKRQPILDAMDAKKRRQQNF

[5] = molecular target: T2, Serine/threonine-protein kinase Nek1 (Homo sapiens) (UniProt Q96PY6)
T2 sequence (whole entry): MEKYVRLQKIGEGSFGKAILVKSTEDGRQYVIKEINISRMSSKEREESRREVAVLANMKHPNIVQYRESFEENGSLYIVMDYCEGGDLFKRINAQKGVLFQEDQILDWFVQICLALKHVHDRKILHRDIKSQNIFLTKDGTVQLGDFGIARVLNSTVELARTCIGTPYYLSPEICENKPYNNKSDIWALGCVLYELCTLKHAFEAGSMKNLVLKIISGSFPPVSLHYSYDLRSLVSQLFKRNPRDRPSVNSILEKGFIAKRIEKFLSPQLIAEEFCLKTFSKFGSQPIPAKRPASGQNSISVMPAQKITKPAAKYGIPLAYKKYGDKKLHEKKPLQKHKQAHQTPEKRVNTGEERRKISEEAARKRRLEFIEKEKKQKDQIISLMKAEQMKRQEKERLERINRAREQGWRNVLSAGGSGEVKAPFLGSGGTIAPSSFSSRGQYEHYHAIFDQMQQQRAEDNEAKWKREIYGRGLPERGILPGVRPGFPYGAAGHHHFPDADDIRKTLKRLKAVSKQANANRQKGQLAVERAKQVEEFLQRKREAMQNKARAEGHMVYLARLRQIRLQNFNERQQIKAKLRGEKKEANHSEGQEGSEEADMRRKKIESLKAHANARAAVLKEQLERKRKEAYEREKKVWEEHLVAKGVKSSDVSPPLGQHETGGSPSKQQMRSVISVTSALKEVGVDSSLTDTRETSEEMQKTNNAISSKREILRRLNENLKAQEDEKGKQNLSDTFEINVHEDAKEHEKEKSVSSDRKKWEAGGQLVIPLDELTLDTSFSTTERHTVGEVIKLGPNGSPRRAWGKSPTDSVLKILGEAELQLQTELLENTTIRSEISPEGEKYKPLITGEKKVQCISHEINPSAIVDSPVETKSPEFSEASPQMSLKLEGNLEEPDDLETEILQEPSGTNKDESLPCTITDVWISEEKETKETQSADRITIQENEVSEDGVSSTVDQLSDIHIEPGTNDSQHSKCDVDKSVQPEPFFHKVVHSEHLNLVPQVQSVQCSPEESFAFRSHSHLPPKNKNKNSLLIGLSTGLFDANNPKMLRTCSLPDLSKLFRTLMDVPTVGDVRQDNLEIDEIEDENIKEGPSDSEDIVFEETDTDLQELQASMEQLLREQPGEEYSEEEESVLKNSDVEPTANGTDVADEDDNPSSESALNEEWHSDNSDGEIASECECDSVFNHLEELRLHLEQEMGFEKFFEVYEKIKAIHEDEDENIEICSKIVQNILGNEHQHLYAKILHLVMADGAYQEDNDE

[6] = molecular target: T3, Serine/threonine-protein kinase Nek9 (Homo sapiens) (UniProt Q8TD19)
T3 sequence (whole entry): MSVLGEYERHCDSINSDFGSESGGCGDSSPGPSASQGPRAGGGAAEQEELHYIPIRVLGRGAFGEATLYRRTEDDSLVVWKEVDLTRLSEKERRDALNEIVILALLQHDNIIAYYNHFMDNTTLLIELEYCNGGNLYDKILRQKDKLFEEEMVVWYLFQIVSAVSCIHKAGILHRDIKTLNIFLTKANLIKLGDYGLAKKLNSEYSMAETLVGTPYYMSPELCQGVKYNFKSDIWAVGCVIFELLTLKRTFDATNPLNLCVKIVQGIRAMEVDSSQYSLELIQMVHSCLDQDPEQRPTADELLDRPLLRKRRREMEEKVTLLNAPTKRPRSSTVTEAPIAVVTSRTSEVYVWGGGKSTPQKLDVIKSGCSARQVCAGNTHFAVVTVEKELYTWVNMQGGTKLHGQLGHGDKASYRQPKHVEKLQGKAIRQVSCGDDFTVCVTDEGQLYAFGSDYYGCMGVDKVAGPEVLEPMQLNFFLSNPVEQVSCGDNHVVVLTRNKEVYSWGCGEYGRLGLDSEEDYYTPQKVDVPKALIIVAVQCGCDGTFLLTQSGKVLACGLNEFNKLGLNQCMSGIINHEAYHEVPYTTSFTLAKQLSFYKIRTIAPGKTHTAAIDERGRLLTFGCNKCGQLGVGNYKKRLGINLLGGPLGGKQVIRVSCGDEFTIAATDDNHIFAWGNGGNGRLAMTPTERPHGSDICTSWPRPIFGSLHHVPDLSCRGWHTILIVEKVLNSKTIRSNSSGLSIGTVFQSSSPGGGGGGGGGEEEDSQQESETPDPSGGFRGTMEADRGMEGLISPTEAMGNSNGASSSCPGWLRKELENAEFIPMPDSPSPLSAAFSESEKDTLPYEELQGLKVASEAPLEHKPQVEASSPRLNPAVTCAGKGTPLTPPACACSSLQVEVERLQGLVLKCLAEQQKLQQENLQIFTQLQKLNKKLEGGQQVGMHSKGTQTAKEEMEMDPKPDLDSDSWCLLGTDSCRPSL

[7] = molecular target: Serine/threonine-protein kinase PAK 4 (Homo sapiens) (UniProt O96013)
[8] = test system: Phosphatidylinositol 4,5-bisphosphate 3-kinase catalytic subunit alpha isoform (Homo sapiens), P42336 [E545K]
[9] = Compound concentration 1000.0 nM
[10] = Compound concentration 100.0 nM

Measured: residual activity

Sequence of Serine/threonine-protein kinase PAK 4 (Homo sapiens) (O96013 whole entry, looked up, canonical isoform): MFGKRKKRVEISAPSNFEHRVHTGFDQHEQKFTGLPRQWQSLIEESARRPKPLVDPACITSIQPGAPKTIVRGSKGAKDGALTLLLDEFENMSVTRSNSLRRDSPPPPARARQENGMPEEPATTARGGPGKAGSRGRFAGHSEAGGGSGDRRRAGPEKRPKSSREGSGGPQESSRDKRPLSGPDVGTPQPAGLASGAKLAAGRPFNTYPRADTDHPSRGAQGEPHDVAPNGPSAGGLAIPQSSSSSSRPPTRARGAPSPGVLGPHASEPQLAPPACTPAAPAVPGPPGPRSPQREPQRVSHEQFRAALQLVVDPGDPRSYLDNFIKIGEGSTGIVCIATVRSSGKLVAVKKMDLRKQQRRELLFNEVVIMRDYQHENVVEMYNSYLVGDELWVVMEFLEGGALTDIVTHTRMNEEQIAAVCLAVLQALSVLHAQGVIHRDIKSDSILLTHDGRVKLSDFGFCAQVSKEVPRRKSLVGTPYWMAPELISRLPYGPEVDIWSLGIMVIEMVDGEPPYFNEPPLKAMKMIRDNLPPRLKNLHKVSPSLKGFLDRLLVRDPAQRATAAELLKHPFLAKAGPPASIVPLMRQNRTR
Sequence of Mitogen-activated protein kinase 8 (Homo sapiens) (P45983 whole entry): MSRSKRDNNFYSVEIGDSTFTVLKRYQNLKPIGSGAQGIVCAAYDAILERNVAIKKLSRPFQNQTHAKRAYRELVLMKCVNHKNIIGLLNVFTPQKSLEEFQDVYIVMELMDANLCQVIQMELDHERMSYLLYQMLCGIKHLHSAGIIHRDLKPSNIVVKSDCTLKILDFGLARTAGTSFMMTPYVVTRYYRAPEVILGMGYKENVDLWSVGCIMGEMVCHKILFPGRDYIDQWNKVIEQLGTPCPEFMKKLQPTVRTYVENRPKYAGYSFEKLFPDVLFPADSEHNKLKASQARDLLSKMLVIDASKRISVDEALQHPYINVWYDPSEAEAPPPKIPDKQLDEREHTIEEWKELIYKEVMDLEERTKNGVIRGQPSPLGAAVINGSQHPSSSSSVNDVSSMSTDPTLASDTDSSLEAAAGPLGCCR
Sequence of Phosphatidylinositol 4,5-bisphosphate 3-kinase catalytic subunit alpha isoform (Homo sapiens), P42336 [E545K] (P42336 whole entry E545K, canonical isoform): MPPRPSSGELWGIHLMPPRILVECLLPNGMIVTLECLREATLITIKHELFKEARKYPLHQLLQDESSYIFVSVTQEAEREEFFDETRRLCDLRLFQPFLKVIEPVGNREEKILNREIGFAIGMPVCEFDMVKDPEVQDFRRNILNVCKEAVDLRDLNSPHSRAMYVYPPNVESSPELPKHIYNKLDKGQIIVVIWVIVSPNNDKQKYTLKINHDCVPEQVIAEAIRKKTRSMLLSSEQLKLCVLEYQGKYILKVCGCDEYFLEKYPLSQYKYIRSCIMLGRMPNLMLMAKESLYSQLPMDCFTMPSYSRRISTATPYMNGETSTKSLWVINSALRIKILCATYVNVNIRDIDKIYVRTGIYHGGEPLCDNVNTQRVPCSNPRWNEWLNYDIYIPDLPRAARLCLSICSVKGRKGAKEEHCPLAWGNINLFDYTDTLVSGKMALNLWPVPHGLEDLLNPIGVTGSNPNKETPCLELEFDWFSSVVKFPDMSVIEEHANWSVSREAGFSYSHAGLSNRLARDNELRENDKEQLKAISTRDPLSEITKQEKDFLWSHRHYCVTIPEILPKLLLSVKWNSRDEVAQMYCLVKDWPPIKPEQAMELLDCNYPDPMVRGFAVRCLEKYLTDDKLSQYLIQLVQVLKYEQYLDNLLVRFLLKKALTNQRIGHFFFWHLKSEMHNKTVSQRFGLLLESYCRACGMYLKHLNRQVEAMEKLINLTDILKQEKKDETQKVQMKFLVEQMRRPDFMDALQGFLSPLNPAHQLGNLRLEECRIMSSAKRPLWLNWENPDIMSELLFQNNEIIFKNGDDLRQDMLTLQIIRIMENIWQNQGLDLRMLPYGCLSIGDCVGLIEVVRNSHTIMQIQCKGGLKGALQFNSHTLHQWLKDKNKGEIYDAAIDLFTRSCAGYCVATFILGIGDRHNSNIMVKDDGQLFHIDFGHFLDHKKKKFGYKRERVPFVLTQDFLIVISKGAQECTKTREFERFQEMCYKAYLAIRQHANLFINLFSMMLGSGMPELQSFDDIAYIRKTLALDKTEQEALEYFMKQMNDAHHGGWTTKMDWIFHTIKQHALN
Sequence of Cyclin-dependent kinase 4 (Homo sapiens) (P11802 whole entry): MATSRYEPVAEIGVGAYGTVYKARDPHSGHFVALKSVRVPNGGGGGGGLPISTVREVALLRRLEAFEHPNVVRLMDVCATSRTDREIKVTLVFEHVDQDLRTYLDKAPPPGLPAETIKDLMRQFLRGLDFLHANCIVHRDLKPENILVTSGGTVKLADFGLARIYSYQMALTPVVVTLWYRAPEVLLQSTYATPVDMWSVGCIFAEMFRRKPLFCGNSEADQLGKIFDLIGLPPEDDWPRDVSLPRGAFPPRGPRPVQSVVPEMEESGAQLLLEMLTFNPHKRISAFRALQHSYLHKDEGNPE
Sequence of Receptor tyrosine-protein kinase erbB-4 (Homo sapiens) (Q15303 whole entry): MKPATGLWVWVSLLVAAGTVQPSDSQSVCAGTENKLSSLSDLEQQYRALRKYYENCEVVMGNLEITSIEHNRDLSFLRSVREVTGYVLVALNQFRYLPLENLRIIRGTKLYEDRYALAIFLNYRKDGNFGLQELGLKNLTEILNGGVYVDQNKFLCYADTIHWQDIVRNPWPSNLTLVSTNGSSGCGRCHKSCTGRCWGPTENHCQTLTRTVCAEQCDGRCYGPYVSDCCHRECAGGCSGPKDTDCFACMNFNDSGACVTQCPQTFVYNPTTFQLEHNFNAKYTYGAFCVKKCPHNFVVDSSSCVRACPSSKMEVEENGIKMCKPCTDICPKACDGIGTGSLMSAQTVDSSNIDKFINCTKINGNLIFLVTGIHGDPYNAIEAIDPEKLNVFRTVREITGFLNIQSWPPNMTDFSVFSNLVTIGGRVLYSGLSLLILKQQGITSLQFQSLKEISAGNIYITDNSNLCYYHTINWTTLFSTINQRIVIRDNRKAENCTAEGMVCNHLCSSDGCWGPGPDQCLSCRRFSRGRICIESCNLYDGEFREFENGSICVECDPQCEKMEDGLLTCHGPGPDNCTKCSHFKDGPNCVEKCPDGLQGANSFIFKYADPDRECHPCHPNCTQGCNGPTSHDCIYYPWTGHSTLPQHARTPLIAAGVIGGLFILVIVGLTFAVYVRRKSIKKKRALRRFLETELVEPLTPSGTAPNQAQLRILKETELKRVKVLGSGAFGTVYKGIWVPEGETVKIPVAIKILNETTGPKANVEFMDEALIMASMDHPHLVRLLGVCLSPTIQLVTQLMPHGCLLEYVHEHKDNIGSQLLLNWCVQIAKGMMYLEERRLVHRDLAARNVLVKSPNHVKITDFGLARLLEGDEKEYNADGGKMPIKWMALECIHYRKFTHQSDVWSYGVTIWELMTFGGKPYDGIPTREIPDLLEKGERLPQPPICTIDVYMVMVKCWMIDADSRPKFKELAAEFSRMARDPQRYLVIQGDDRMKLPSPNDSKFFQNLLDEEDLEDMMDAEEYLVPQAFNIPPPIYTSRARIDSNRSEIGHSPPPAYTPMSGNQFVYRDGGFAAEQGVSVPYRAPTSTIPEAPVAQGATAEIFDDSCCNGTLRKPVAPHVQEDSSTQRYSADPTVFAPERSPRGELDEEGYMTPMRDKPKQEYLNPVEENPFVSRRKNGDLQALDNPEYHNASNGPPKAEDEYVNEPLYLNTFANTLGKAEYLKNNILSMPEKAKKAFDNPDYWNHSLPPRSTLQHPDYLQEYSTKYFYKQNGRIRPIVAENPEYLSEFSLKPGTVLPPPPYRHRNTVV

C[C@@H]1CN(c2cc(-c3nn(C)c4ccc(OC5(C)CC5)cc34)ncn2)C[C@H](C)O1 [MLi-2-NC]
inactive: [1]; [9] 71% | [2]; [9] 96% | [3]; [9] 82% | [4]; [9] 100% | [5]; [9] 83% | [6]; [9] 71% | [7]; [9] 93% | [8]; [9] 79%

C[C@@H]1CN(c2cc(-c3n[nH]c4ccc(OC5(C)CC5)cc34)ncn2)C[C@H](C)O1 [MLi-2]
inactive: [1]; [10] 97% | [2]; [10] 90% | [3]; [10] 63% | [4]; [10] 78% | [5]; [10] 100% | [6]; [10] 100% | [7]; [10] 97% | [8]; [10] 65%
